One test has as its system calpain. Put plainly: Inhibition (inactivation) of calpain, Suc-Leu-Tyr-AMC. The format is biochemical. Particulars: pH 7.5, 5 mM CaCl2, 25° C.; for k/KI (kirr/KI): values without asterisk; for kobs /[I]*: values marked * (or %). How it is done: The inhibitors were tested against calpain at 1 or 2% as for the other enzymes. The reaction conditions were 50 mM Tris, pH 7.5, 5 mM CaCl2, 2.5 mM DTT, assayed at 25° C. The substrate was 100 μM Suc-Leu-Tyr-AMC.

The next test addresses cruzain, from T. cruzi (Trypanosoma cruzi, UniProt P25779). Description: Inhibition of cruzain, as for cathepsin L. In kind it is biochemical. Particulars: values marked *; for kinact/KI: pH 6.2, read-out: kobs /[I]* (approximate second-order inactivation constant). The gist of the method: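 Run as for cathepsin L with 1 nM cruzain in 50 mM phosphate pH […], 2.5 mM DTT, 2.5 mM EDTA, 5 μM Z-Phe-Arg-AMC, at 25 °C, inhibitors 30-0.001 μM; fluorescence (ex 380/em 460 nm) followed continuously. kobs fitted from progress curves and kobs/[I] reported; selected compounds gave kirr, KI, kirr/KI, with KI corrected by (1+[S]/Km).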

Another test has as its target T1, Cloned cathepsin S (Homo sapiens, UniProt P25774).
T1 construct: made in house
Description: Inhibition of cathepsin S, Z-Val-Val-Arg-AMC fluorescence progress curves. The format is biochemical. How it is done: Stock solutions of the various inhibitors (10 mM) were made in DMF; dilutions were made in the same solvent. Cloned cathepsin S, (see Bromme et al., J. Biol. Chem. 268(&): 4832-4838 (1993)) was less than 1 nM in the assay. The assay buffer contained 100 mM phosphate at pH 6.5, 0.01% Triton, 2.5 mM dithiothreitol (DTT), and 2.5 mM ethylenediaminetetraacetic acid (EDTA). The substrate for cathepsin S was 10 μM Z-Val-Val-Arg-AMC (carbobenzyloxyvalinylvalinylarginylaminomethylcoumarin). The assays were initiated at 25° C. by addition of enzyme to 2 mL of assay buffer containing the substrate and the various inhibitors (30-0.001 μM). The increase in fluorescence at 460 nm with excitation at 380 nm was followed with time. Inactivation of cathepsin S was indicated by a downward curve in the increase in fluorescence with time. In the absence of inhibitors, the enzymatic production of free AMC was linear throughout the time course of inactivation examined. Data points were collected over at least 3 half-times of inactivation. The inhibition progress curves were analyzed using non-linear curve fitting software to compute the kobs values. Approximate second-order inactivation constants (kobs /[I]) were calculated for all compounds. For selected inhibitors, plots of 1/[I] vs. 1/kobs yielded the true constants kirr, KI, and kirr /KI, and were corrected for the presence of substrate by dividing KI (app.) by {1+[S]/Km}.

Test [1] has as its target T2, Cathepsin L from rat liver (Rattus norvegicus, UniProt P07154).
T2 construct: Cathepsin L from rat liver; from tissue; host or cells: rat liver
Description: Inhibition of cathepsin L, Z-Phe-Arg-AMC fluorescence progress curves. The format is biochemical. Particulars: for k/KI (kirr/KI): values without asterisk. Summed up: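 Progress curves of AMC release (380/460 nm) over at least 3 inactivation half-times were fitted to kobs, reported as kobs/[I] or, via 1/[I] vs 1/kobs, kirr, KI (substrate-corrected) and kirr/KI.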

Test [2] deals with T3, Cathepsin B from human placenta (Homo sapiens, UniProt P07858).
T3 construct: Cathepsin B from human placenta, obtained from Sigma; purchased Sigma; host or cells: human placenta (tissue)
Description: Inhibition of cathepsin B, Z-Arg-Arg-AMC fluorescence progress curves. In kind it is biochemical. Particulars: for k/KI (kirr/KI): values without asterisk. The gist of the method:
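Human placental enzyme (~10 nM) in 50 mM phosphate pH 6.2 with 2.5 mM DTT and 2.5 mM EDTA, 50 μM Z-Arg-Arg-AMC, inhibitors 30-0.001 μM, 25° C. AMC fluorescence (ex 380/em 460 nm) progress curves fitted for kobs; kobs/[I] reported, with kirr, KI and kirr/KI substrate-corrected for selected compounds.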

For test [3], the system named is Leishmania donovani amastigote infected mouse peritoneal macrophages. Description: In vitro antiprotozoal activity, Leishmania donovani. The format is cell-based. How it is done:
(§1) In this table, the in vitro antiprotozoal activities of the indicated compounds were measured as percentage inhibition of Leishmania donovani amastigote infecteda mouse peritoneal macrophages, Trypanosoma cruzi amastigote infected macrophages, and Trypanosoma brucei extracellular bloodstream forms.

For test [4], the system named is Trypanosoma cruzi amastigote infected macrophages. Put plainly: In vitro antiprotozoal activity, Trypanosoma cruzi. In kind it is cell-based. How it is done: as §1
Test [5] concerns Trypanosoma brucei extracellular bloodstream forms. Description: In vitro antiprotozoal activity, Trypanosoma brucei. In kind it is cell-based. How it is done: as §1
For test [6], the system named is human malarial parasite Plasmodium falciparum. Description: In vitro protease activity of malarial parasite, substrate Z-Phe-Arg-AMC. The format is biochemical. Particulars: read-out: P. falciparum IC50 (human). The source says:
(§2) The following table summarizes the comparative IC50 values for selected cysteine protease inhibitors against the human malarial parasite Plasmodium falciparum and the mouse malarial parasite Plasmodium vinckei. The substrate used to measure in vitro protease activity was Z-Phe-Arg-AMC.

The subject of test [7] is mouse malarial parasite Plasmodium vinckei. The description is as above. Particulars: read-out: P. vinckei IC50 (murine). In kind it is biochemical.
Source text: as §2

Counter-ions that a name gives are not always drawn. Like-named read-outs stand apart in the source and are kept apart here.

Results on nine compounds are retold here after patent US6287840A (Axys Pharmaceuticals, Inc., priority 1999, dated 2001).

Sequence of cruzain, from T. cruzi (P25779 123-337 limits assumed): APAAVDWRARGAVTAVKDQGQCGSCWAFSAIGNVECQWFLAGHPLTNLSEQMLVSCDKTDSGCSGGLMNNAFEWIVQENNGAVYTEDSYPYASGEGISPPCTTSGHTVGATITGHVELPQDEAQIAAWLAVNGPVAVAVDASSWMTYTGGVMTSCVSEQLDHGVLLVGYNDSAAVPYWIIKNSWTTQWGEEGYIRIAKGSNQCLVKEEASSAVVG
T2 sequence (P07154 114-288 limits assumed): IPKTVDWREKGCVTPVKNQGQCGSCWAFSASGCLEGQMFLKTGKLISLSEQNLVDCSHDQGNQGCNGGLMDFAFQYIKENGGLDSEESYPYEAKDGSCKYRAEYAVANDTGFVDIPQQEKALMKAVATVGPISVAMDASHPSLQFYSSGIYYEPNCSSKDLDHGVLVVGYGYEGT
T2 sequence (P07154 291-334 limits assumed): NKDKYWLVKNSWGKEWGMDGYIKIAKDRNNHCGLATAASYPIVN
T1 sequence (P25774 115-331): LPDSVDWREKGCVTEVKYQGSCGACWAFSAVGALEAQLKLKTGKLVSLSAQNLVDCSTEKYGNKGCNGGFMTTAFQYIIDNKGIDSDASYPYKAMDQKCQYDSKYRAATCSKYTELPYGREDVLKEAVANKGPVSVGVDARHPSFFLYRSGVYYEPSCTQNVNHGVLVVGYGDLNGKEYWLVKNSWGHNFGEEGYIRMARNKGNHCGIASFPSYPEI

Consider `CC(Cc1ccccc1)(NC(=O)N1CCOCC1)C(=O)N[C@H](/C=C/S(=O)(=O)c1ccccc1)CCc1ccccc1` (mixture of isomers) [Mu-DL-Fam-HphVSPh], for which the “k/KI (kirr/KI)” value with calpain is 0 M⁻¹ s⁻¹; at Cloned cathepsin S (values without asterisk, 25° C., pH 6.5), 39,000 M^-1 sec^-1; in test [1] (25° C., pH 6.2), 0 M⁻¹ s⁻¹; in test [2] (25° C., pH 6.2) it was 0 M⁻¹ s⁻¹. In addition, the “kobs /[I]* (approximate second-order inactivation constant)” value at cruzain, from T. cruzi is on record as 18,100 M^-1 sec^-1. Also, the kirr at Cloned cathepsin S was determined as 0.54 s⁻¹. The same compound yielded a Ki on Cloned cathepsin S (corrected for substrate) of 14 µM. Besides, the KI entry in test [1] (corrected for substrate) and in [2] (corrected for substrate) was “binds” each time.
As to `CC(C)(C)OC(=O)C[C@@H](/C=C/S(C)(=O)=O)NC(=O)OC(C)(C)C` [Boc-Asp(O-tBu)VSMe, (S)-(E)-3-tert-butoxycarbonylamino-4-tert-butoxycarbonyl-1-methylsulfonyl-1-butene], the “k/KI (kirr/KI)” value in the test with calpain amounted to 0 M⁻¹ s⁻¹; in test [1] (25° C., pH 6.2) it was 0 M⁻¹ s⁻¹; in test [2] (25° C., pH 6.2), 0 M⁻¹ s⁻¹. For the same compound, the inhibition at 3 µM stood at 0% in [3] (Leishmania donovani, Peritoneal macrophage, 3 uM, read-out: percentage inhibition, L. donovani); 0% in [4] (Trypanosoma cruzi, Macrophage, 3 uM, read-out: percentage inhibition, T. cruzi); 0% in [5] (Trypanosoma brucei, 3 uM, read-out: percentage inhibition, T. brucei). Also, the inhibition at 10 µM in test [3] (Leishmania donovani, Peritoneal macrophage, 10 uM, read-out: percentage inhibition, L. donovani) was determined as 0%; in test [4] (Trypanosoma cruzi, Macrophage, 10 uM, read-out: percentage inhibition, T. cruzi), 0%; in test [5] (Trypanosoma brucei, 10 uM, read-out: percentage inhibition, T. brucei) it was 0%. In addition, the inhibition at 30 µM in test [3] (Leishmania donovani, Peritoneal macrophage, 30 uM, read-out: percentage inhibition, L. donovani) is 13.4%; in [4] (Trypanosoma cruzi, Macrophage, 30 uM, read-out: percentage inhibition, T. cruzi), 0%; in test [5] (Trypanosoma brucei, 30 uM, read-out: percentage inhibition, T. brucei), 0%. Further, the inhibition at 90 µM came out at 12.9% in test [3] (Leishmania donovani, Peritoneal macrophage, 90 uM, read-out: percentage inhibition, L. donovani); 9.9% in [4] (Trypanosoma cruzi, Macrophage, 90 uM, read-out: percentage inhibition, T. cruzi); 0% in [5] (Trypanosoma brucei, 90 uM, read-out: percentage inhibition, T. brucei). In addition, the kinact/KI at cruzain, from T. cruzi was 800 M⁻¹ s⁻¹.
`CC(N)C(=O)NC(C=CS(C)(=O)=O)Cc1ccccc1` (stereo not drawn) [HCl.Ala-PheVSMe]: the IC50 in test [6] (cells printed in μM) was greater than 100 µM.
For the compound `COC(=O)C1CCCN1C(=O)C(CC(C)C)NC(=O)/C=C/[C@H](CCc1ccccc1)NC(=O)[C@H](Cc1ccccc1)NC(=O)N1CCOCC1` (stereo partly drawn) [Mu-Phe-HphVAMLeu-ProOMe, (S)-(E)-(N-leucylprolinemethylester)-4-(4-morpholinecarbonylphenyl-alanyl)amino-6-phenyl-2-hexenamide], the values for the half-maximal inhibitory concentration (IC50) in [7] (cells printed in nM) and in test [6] (cells printed in nM) were 600 nM and 0.08 µM, respectively.
For the compound `CC(C)C[C@H](NC(=O)OCc1ccccc1)C(=O)N[C@@H](CC(C)C)C(=O)N[C@H](/C=C/S(=O)(=O)c1ccccc1)Cc1ccc(O)cc1` [Z-Leu-Leu-TyrVSPh, (S)-(E)-3-(benzyloxycarbonylleucylleucyl)amino-4-(4-hydroxyphenyl)-1-phenylsulfonyl-1-butene], the “kobs /[I]*” value with calpain was 36,400 M^-1 sec^-1. Further, the “k/KI (kirr/KI)” value in the test with calpain is recorded as 24,300 M^-1 sec^-1. In addition, the kinact/KI came out at 45000 M⁻¹ s⁻¹ at cruzain, from T. cruzi; 280000 M⁻¹ s⁻¹ at Cloned cathepsin S (values marked *, 25° C., pH 6.5, read-out: kobs /[I]* (approximate second-order inactivation constant)); 730 M⁻¹ s⁻¹ in [2] (values marked *, 25° C., pH 6.2, read-out: kobs /[I]* (approximate second-order inactivation constant)).
On to “(S)-(E)-3-(4-morpholinecarbonylphenylalanyl)amino-1-methylsulfonyl-1-butene [Mu-Phe-AlaVSMe]”, for which, in the test on calpain, the “kobs /[I]*” value is less than 50 M⁻¹ s⁻¹. The 50% inhibitory concentration (IC50) in test [6] (cells printed in μM) was 20 µM. Further, the “percentage inhibition, L. donovani” value in test [3] (3 uM) came out at 0%; in [3] (10 uM), 0%; in [3] (30 uM), 0%; in [3] (90 uM), 6.7%. Also, the “kobs /[I]* (approximate second-order inactivation constant)” value was 700 M⁻¹ s⁻¹ at cruzain, from T. cruzi and 26,000 M^-1 sec^-1 at Cloned cathepsin S (values marked *, 25° C., pH 6.5). In addition, the “percentage inhibition, T. cruzi” value is 0% in test [4] (3 uM), 0% in [4] (10 uM), 11.2% in test [4] (30 uM) and 12.2% in test [4] (90 uM). For the same compound, the “percentage inhibition, T. brucei” value in [5] (3 uM), in test [5] (10 uM), in test [5] (30 uM) and in test [5] (90 uM) was 0% throughout. This compound also had a kirr in test [2] of 0.19 s⁻¹. The compound further returned a Ki in test [2] (corrected for substrate) of roughly 1000 µM. Moreover, in test [2] (25° C., pH 6.2), the “k/KI (kirr/KI)” value came out at 300 M⁻¹ s⁻¹.
“(S)-(E)-3-(4-morpholinecarbonylphenylalanyl)amino-1-methylsulfonyl-4-phenyl-1-butene [Mu-Phe-PheVSMe]”: in the test with calpain, the “kobs /[I]*” value turned out to be 260 M⁻¹ s⁻¹. The IC50 in test [6] (cells printed in μM) turned out to be 2 µM. In test [1] (values marked *, 25° C., pH 6.2), the “kobs /[I]* (approximate second-order inactivation constant)” value is 100 M⁻¹ s⁻¹.
Take “(S)-(E)-4-(4-morpholinecarbonylphenylalanyl)amino-6- phenyl-2-hexenoic acid [Mu-Phe-HphVA]”: the IC50 in test [7] (cells printed in μM) is 2000 nM; in [6] (cells printed in μM), 1 µM. The compound also came in with a kirr in test [2] of 0.038 s⁻¹. In [2] (corrected for substrate), the affinity corresponds to a Ki of 85 µM. Moreover, the “k/KI (kirr/KI)” value in test [2] (25° C., pH 6.2) stood at 450 M⁻¹ s⁻¹.
As for “ethyl (S)-(E)-4-(4-morpholinecarbonylphenylalanyl)-amino-6-phenyl-2-hexenoate [Mu-Phe-HphVEOEt]”, the 50% inhibitory concentration (IC50) in test [7] (cells printed in nM) came out at 300 nM; in test [6] (cells printed in nM) it was 0.3 µM. The “kobs /[I]* (approximate second-order inactivation constant)” value on cruzain, from T. cruzi is 80,400 M^-1 sec^-1. In addition, the kirr in test [1] was determined as 0.10 s⁻¹; in test [2], 0.19 s⁻¹. Further, the Ki in test [1] (corrected for substrate) was 2.2 µM; in test [2] (corrected for substrate) it was 19 µM. For the same compound, the “k/KI (kirr/KI)” value is given as 47,500 M^-1 sec^-1 in test [1] (25° C., pH 6.2) and 10,100 M^-1 sec^-1 in test [2] (25° C., pH 6.2).

Usually Ki stands for a dissociation constant, usually derived from enzyme kinetics or from competition with a known ligand. Broadly, the inhibition is the percentage by which the read-out fell short of the control. For orientation: IC50 means the concentration that inhibits the measured activity by half.
